{"source": "patent US20080039442A1", "about": "“Compounds With Kv4 Ion Channel Activity” (Devgen NV, priority 2004, published 2008)"}
{"molecular_target": "T1, human Kv4.3/KChIP2.2 potassium channel (Homo sapiens, UniProt Q9UK17)", "T1 construct": "expressed in transfected cells", "T1 sequence (Q9UK17 1-655)": "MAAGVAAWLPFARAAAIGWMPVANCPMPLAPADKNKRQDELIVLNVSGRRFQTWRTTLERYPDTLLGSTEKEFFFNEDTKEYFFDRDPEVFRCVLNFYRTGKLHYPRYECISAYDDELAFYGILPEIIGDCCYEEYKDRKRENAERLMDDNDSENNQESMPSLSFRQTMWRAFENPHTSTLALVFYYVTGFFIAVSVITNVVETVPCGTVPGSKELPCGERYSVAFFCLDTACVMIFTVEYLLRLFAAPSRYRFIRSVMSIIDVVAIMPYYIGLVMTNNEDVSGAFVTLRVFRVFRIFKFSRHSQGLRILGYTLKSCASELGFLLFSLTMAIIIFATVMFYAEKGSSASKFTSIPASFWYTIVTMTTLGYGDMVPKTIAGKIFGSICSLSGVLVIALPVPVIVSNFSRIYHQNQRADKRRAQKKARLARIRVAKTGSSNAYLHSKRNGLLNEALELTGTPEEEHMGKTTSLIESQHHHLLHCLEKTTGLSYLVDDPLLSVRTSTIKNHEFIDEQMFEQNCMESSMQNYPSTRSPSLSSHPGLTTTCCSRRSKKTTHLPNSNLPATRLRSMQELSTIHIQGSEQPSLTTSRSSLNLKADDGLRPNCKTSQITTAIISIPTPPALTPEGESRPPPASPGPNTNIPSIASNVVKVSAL", "T1 sequence (Q9NS61 1-270 partner)": "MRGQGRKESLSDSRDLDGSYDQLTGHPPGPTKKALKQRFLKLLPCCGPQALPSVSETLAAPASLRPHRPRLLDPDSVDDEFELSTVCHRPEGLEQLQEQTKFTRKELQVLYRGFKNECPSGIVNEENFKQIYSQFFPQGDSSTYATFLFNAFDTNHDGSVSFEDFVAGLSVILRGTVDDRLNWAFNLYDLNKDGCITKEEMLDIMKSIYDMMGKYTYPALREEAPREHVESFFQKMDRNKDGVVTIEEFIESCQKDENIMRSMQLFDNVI", "experiment": "Whole cell patch clamp, CHO-K1 cells stably expressing Kv4.3/KChIP2.2", "type": "cell-based", "settings": "CHO-K1; 1 μM; read-out: Kv4.3 charge in %: remaining current measured after application of the compound and relative to the blank", "experimental": "(§1) For this experiment, a recombinant CHO-K1 cell line stably expressing the human Kv4.3/KChIP2.2 potassium channel was used.\n(§2) Protocol B: The cells were cultured in 94 mm culture dishes under the culturing conditions of 5% CO2 and 37° C. Subculturing was performed every 3-4 days, by removing the media and then rising the dish with 8 ml PBS (phosphate buffered saline). The PBS was removed and 1 ml Trypsin/EDTA was added to the cells. The cells were incubated about 2 min at 37° C. or 5 min at room temperature and then the dish was rapped to detach and singularize the cells. To inactivate the enzyme 9 ml of media was added and the solution was pipetted up and down to break up clumps of cells. Part of the suspension was then transferred to a new 94 mm dish and media was added to a final volume of 8 ml. If necessary the cells could be seeded onto 35 mm or 94 mm dishes (2 ml media per 35 mm dish and 8 ml media per 94 mm dish). The media was changed every 2-3 days. The media used was the solution for culturing the cells described above. For stable cells antibiotic G418, Hygromycin, Blasticidin, or Zeocin were not added.\n(§3) The preparation of cells for electrophysiological experiments was performed as described in protocol C hereunder.\n(§4) Protocol C: The transfected cells and stable cells were transferred from 35 mm cell culture dishes onto coverslips using cold PBS: The media was removed and 0.3 ml of PBS (4-10° C.) was added. The cells were incubated 5 min at room temperature. The dish was rapped to detach and singularize the cells and 1.7 ml media was added and the solution pipetted up and down to break up clumps of cells. Part of the cell suspension was then transferred to a 35 mm dish with coverslips and media. The transfected cells and stable cells could also be transferred from 35 mm cell culture dishes onto coverslips using trypsin: The media was removed and the dish rinsed with 3 ml PBS. The PBS was removed and 0.3 ml 1× Trypsin/EDTA was added and the cells incubated 5 min at room temperature. The dish was rapped to detach and singularize the cells and 1.7 ml media was added and the solution pipetted up and down to break up clumps of cells. Part of the cell suspension was then transferred to a 35 mm dish with coverslips and media.\n(§5) 10 mM stock solutions of the compounds were prepared in DMSO. Solutions of the compounds were prepared by dilution of stock solution in bath solution. If the required stock solution volume was theoretically below 1 μl, bath solutions with higher compound concentration were used for dilution. The maximal DMSO concentration during experiments was 0.1% (v/v).\n(§6) For patch clamp experiments, the following solutions in demineralized water as vehicle were used (concentration in mM).\n(§7) Bath (external) solution: 4 KCl, 135 NaCl, 2 CaCl2, 1 MgCl2, 10 D(+)-Glucose, 5 HEPES, pH 7.4 (NaOH).\n(§8) Pipette (internal) solution: 130 KCl, 1 MgCl2, 10 EGTA, 5 Na2ATP, 5 HEPES, pH 7.4 (KOH).\n(§9) Experiments were performed using a patch clamp set-up.\n(§10) Measurements were performed at room temperature (20-25° C.). […] Each cell acted as its own control. The effect of compounds on Kv4.3/KChIP2.2 mediated currents was investigated at one concentration ([…]) with two replicates each (c=1, n=2).\n(§11) The test protocols are illustrated in FIG. 1 and Table 4. […] Each test protocol consisted of 4 segments.\n(§12) Subsequently, 14 test pulses (series 1; FIG. 1b and Table 4b) were applied at 0.1 Hz under constant superfusion with bath solution. The protocol was initiated by a voltage jump to −100 mV (400 ms) to achieve full inactivation. Then the Kv4.3/KChIP2.2 channels were transferred to the open state by depolarization to +40 mV for 300 milliseconds (activation). Only cells generating current amplitudes between 1 nA and 50 nA were used for the experimental procedure. No or negligible rundown was observed.\n(§13) Then, 36 test pulses (series 2) were applied at 0.1 Hz under constant superfusion with the compound dissolved in bath solution. […]", "units": {"remaining activity at 1 µM": "%"}}
{"molecule": "Cc1c(C(=O)N2CCCCC2Cc2ccccc2)oc2ccc(Cl)cc12", "note": "(centres unmarked) [Compound 106, (2-benzyl-piperidin-1-yl)-(5-chloro-3-methyl-benzofuran-2-yl)-methanone]", "remaining activity at 1 µM": 59}
{"molecule": "O=C(NCc1ccccc1)c1cc2cc(Cl)ccc2o1", "note": "[Compound 47, 5-chloro-benzofuran-2-carboxylic benzylamide]", "remaining activity at 1 µM": 87}
{"molecule": "Cc1ccc(C2CCN(C(=O)c3cc4cc(Cl)ccc4o3)CC2)cc1", "note": "[Compound 98, (5-chloro-benzofuran-2-yl)-(4-p-tolyl-piperidin-1-yl)-methanone]", "remaining activity at 1 µM": 80}
{"molecule": "COc1ccc(CNC(=O)c2cc3ccccc3o2)c(OC)c1", "note": "[Compound 12, benzofuran-2-carboxylic acid 2,4-dimethoxy-benzylamide]", "remaining activity at 1 µM": 89}
{"molecule": "COc1ccc(CC(=O)c2cc3ccccc3o2)c(OC)c1", "note": "[Compound 23, 1-benzofuran-2-yl-2-(2,4-dimethoxy-phenyl)-ethanone]", "remaining activity at 1 µM": 83}
{"molecular_target": "T1, human Kv4.3/KChIP2.2 potassium channel", "experiment": "Whole cell patch clamp, CHO-K1 cells stably expressing Kv4.3/KChIP2.2", "type": "cell-based", "settings": "CHO-K1; 1 μM; read-out: Kv4.3 peak in %: remaining peak height measured after application of the compound and relative to the blank", "experimental": "as §1, §2, §3, §4, §5, §6, §7, §8, §9, §10, §11, §12, §13", "units": {"remaining activity at 1 µM": "%"}}
{"molecule": "Cc1c(C(=O)N2CCCCC2Cc2ccccc2)oc2ccc(Cl)cc12", "note": "(centres unmarked) [Compound 106, (2-benzyl-piperidin-1-yl)-(5-chloro-3-methyl-benzofuran-2-yl)-methanone]", "remaining activity at 1 µM": 87}
{"molecule": "O=C(NCc1ccccc1)c1cc2cc(Cl)ccc2o1", "note": "[Compound 47, 5-chloro-benzofuran-2-carboxylic benzylamide]", "remaining activity at 1 µM": 95}
{"molecule": "Cc1ccc(C2CCN(C(=O)c3cc4cc(Cl)ccc4o3)CC2)cc1", "note": "[Compound 98, (5-chloro-benzofuran-2-yl)-(4-p-tolyl-piperidin-1-yl)-methanone]", "remaining activity at 1 µM": 97}
{"molecule": "COc1ccc(CNC(=O)c2cc3ccccc3o2)c(OC)c1", "note": "[Compound 12, benzofuran-2-carboxylic acid 2,4-dimethoxy-benzylamide]", "remaining activity at 1 µM": 97}
{"molecule": "COc1ccc(CC(=O)c2cc3ccccc3o2)c(OC)c1", "note": "[Compound 23, 1-benzofuran-2-yl-2-(2,4-dimethoxy-phenyl)-ethanone]", "remaining activity at 1 µM": 99}
{"molecular_target": "T1, human Kv4.3/KChIP2.2 potassium channel", "experiment": "Whole cell patch clamp, CHO-K1 cells stably expressing Kv4.3/KChIP2.2", "type": "cell-based", "settings": "Table 12; read-out: Kv4.3 charge IC50", "experimental": "as §1, §2, §3, §4, §5, §6, §7, §8, §9, §10, §11, §12, §13", "units": {"IC50": "nM"}}
{"molecule": "O=C(c1ccc(Cl)cc1)C1CCN(C(=O)c2cc3cc(Cl)ccc3o2)CC1", "note": "[Compound 7, (5-chloro-benzofuran-2-yl)-[4-(4-chloro-benzoyl)-piperidin-1-yl]-methanone]", "IC50": 890}
{"molecule": "Cc1ccc2[nH]cc(CCNC(=O)c3cc4cc(Cl)ccc4o3)c2c1", "note": "[Compound 3, 5-chloro-benzofuran-2-carboxylic acid [2-(5-methyl-1H-indole-3-yl)-ethyl]-amide]", "IC50": 1330}
{"test_system": "not given", "experiment": "not given", "settings": "not given", "units": {"melting point": "°C"}}
{"molecule": "O=C(NCc1ccc(F)c(C(F)(F)F)c1)c1cc2ccccc2o1", "note": "[Compound 50, benzofuran-2-carboxylic acid 4-fluoro-3-trifluoromethyl-benzylamide]", "melting point": "89.5 to 91.6"}
{"molecule": "O=C(c1cc2cc(Cl)ccc2o1)N1CCCC1c1ccc(F)cc1", "note": "(centres unmarked) [Compound 104, (5-chloro-benzofuran-2-yl)-[2-(4-fluoro-phenyl)-pyrrolidin-1-yl]-methanone]", "melting point": "104.4 to 106.1"}
{"molecule": "CS(=O)(=O)c1ccc(CNC(=O)c2cc3cc(Cl)ccc3o2)cc1", "note": "[Compound 79, 5-chloro-benzofuran-2-carboxylic acid 4-methanesulfonyl-benzylamide]", "melting point": "187.6 to 189.1"}
{"molecule": "CSc1ccccc1CNC(=O)c1cc2cc(Cl)ccc2o1", "note": "[Compound 60, 5-chloro-benzofuran-2-carboxylic acid 2-methylsulfanyl-benzylamide]", "melting point": "174.7 to 177.2"}
{"molecule": "COc1ccc(CNC(=O)c2ccc3ccccc3n2)c(OC)c1", "note": "[Compound 112, quinolin-2-carboxylic acid 2,4-dimethoxy-benzylamide]", "melting point": "93.9 to 95.4"}
{"molecule": "O=C(NCc1ccccc1OC(F)(F)F)c1cc2cc(Cl)ccc2o1", "note": "[Compound 87, 5-chloro-benzofuran-2-carboxylic acid 2-trifluoromethoxy-benzylamide]", "melting point": "125.8 to 127.9"}
{"molecule": "Cc1cccc(CNC(=O)c2cc3cc(Cl)ccc3o2)c1", "note": "[Compound 70, 5-chloro-benzofuran-2-carboxylic acid 3-methyl-benzylamide]", "melting point": "148.4 to 149.4"}
{"molecule": "O=C(NC1CCc2ccccc21)c1cc2cc(Cl)ccc2o1", "note": "(centres unmarked) [Compound 94, 5-chloro-benzofuran-2-carboxylic acid indan-1-ylamide]", "melting point": "161.4 to 164.1"}
{"molecule": "Cc1ccccc1CNC(=O)c1cc2cc(Cl)ccc2o1", "note": "[Compound 69, 5-chloro-benzofuran-2-carboxylic acid 2-methyl-benzylamide]", "melting point": "141.8 to 143"}
{"molecule": "CC(NC(=O)c1cc2cc(Cl)ccc2o1)c1ccccc1", "note": "(centres unmarked) [Compound 57, 5-chloro-benzofuran-2-carboxylic acid (1-phenyl-ethyl)-amide]", "melting point": "136.3 to 138.2"}
{"molecule": "COc1ccc(CNC(=O)c2cn(Cc3ccccc3)c3ccccc23)c(OC)c1", "melting point": "118.8 to 120.4"}
{"molecule": "O=C(Nc1ccc(N2CCOCC2)cc1)c1cc2cc(Cl)ccc2o1", "note": "[Compound 99]", "melting point": "223.8 to 225.6"}
{"molecule": "O=C(NCc1cccc(-c2ccccc2)c1)c1cc2cc(Cl)ccc2o1", "note": "[Compound 73, 5-chloro-benzofuran-2-carboxylic acid (biphenyl-3-ylmethyl)-amide]", "melting point": "130.4 to 131"}
{"molecule": "Cc1cccc(Cl)c1CNC(=O)c1sc2ccc(Cl)cc2c1C", "note": "[Compound 110, 5-chloro-3-methyl-benzo[b]thiophene-2-carboxylic acid 2-chloro-6-methyl-benzylamide]", "melting point": "180.5 to 182"}
{"molecule": "O=C(NCc1ccc(Oc2ccccc2)cc1)c1cc2cc(Cl)ccc2o1", "note": "[Compound 68, 5-chloro-benzofuran-2-carboxylic acid 4-phenoxy-benzylamide]", "melting point": "93.6 to 95.5"}
{"molecule": "CC[C@H](NC(=O)c1cc2cc(Cl)ccc2o1)c1ccccc1", "note": "[Compound 59, 5-chloro-benzofuran-2-carboxylic acid ((S)-1-phenyl-propyl)-amide]", "melting point": "110.1 to 111.3"}
{"molecule": "CN(C)S(=O)(=O)c1ccc(CNC(=O)c2cc3cc(Cl)ccc3o2)cc1", "note": "[Compound 67, 5-chloro-benzofuran-2-carboxylic acid 4-dimethylsulfamoyl-benzylamide]", "melting point": "163.9 to 166.6"}
{"molecule": "COC(=O)[C@H](NC(=O)c1cc2cc(Cl)ccc2o1)c1ccccc1", "note": "[Compound 84, (R)-[(5-chloro-benzofuran-2-carbonyl)-amino]-phenyl-acetic acid methyl ester]", "melting point": 147.9}
{"molecule": "O=C(N[C@H](C(=O)O)c1ccccc1)c1cc2cc(Cl)ccc2o1", "note": "[Compound 41, (S)-[(5-chloro-benzofuran-2-carbonyl)-amino]-phenyl-acetic acid]", "melting point": "211.2 to 215.6"}
{"molecule": "N#Cc1ccc(CNC(=O)c2cc3cc(Cl)ccc3o2)cc1", "note": "[Compound 80, 5-chloro-benzofuran-2-carboxylic acid 4-cyano-benzylamide]", "melting point": "226.6 to 230.4"}
